According to publication PMC8770518, “Evolutionary alterations in gene expression and enzymatic activities of gibberellin 3-oxidase 1 in Oryza” (Communications Biology, 2022):

What was measured:
OsGA3ox2 = biological target: T1, OsGA3ox2 (Oryza sativa, UniProt Q9FU53); assay: X-ray crystallography, […] A; type: binding; details: Fe(II) omitted, active site
T1 construct: gene GA3OX2; crystallised without Fe(II)

GID1 = biological target: T2, GID1 (Oryza sativa, UniProt Q6L545); assay: yeast two-hybrid GID1-SLR1 interaction (-His growth); type: cell-based; details: GA-dependent interaction with SLR1; GA 1e-10 to 1e-5 M
T2 construct: yeast two-hybrid fusions: GID1 bait in pGBKT7, SLR1 prey in pGADT7; with DELLA protein SLR1
T2 sequence (Q6L545 1-354): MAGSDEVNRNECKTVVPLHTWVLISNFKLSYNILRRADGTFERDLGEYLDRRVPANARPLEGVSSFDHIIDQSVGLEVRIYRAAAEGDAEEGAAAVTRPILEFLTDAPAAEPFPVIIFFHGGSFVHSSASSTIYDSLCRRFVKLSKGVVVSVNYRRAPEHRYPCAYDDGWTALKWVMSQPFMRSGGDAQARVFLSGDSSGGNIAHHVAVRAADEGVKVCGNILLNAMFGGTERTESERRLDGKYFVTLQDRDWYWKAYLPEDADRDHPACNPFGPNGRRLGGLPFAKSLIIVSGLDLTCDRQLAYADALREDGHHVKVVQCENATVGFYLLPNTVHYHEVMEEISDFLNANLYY
T2 sequence (Q7G7J6 1-625 partner): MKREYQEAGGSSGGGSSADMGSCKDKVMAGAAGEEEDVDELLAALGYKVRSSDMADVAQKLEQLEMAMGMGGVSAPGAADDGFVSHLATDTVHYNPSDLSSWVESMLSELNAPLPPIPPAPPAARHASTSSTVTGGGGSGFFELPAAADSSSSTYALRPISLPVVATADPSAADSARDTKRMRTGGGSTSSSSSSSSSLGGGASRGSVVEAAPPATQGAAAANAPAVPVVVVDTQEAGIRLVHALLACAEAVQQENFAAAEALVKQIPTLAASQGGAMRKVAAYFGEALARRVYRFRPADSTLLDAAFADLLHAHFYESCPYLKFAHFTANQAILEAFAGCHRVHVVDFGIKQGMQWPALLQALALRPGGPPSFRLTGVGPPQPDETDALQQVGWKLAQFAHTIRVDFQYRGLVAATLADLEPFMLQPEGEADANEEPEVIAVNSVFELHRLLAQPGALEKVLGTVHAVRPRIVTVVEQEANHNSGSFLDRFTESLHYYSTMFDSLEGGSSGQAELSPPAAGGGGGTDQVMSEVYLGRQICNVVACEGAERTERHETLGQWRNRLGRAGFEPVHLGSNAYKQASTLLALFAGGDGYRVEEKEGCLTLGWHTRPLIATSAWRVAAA

OsGA3ox1 [1] = biological target: T3, OsGA3ox1 (Oryza sativa, UniProt Q6AT12, F235Y); assay: in vitro 3-oxidation, gas chromatography of products; type: biochemical; details: products GA4 and GA7
T3 construct: gene GA3OX1
T3 sequence (Q6AT12 1-384 F235Y): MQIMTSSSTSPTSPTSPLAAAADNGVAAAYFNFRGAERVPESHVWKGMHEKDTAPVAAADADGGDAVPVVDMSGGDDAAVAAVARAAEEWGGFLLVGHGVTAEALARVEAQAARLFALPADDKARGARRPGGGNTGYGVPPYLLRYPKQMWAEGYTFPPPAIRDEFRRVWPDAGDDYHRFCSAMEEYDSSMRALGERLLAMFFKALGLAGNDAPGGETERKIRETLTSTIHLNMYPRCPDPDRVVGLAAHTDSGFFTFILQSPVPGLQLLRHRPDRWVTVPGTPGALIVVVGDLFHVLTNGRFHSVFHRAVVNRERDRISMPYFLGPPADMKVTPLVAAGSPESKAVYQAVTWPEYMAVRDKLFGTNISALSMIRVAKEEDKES

OsGA3ox1 [2] = biological target: T4, OsGA3ox1 (Oryza sativa, UniProt Q6AT12); assay: as above; type: biochemical; details: products GA4 and GA7
T4 construct: gene GA3OX1
T4 sequence (Q6AT12 whole entry): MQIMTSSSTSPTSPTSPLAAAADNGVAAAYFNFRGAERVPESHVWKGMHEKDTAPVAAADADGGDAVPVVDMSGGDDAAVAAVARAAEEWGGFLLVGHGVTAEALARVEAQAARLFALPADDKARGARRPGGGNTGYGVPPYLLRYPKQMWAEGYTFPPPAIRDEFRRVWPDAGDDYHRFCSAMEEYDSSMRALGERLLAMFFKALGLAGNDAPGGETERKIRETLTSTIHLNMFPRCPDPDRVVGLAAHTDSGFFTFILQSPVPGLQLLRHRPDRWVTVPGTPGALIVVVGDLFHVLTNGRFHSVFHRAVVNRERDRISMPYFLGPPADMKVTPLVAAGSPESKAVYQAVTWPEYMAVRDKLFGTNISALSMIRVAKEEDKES

T1 sequence (Q9FU53 whole entry): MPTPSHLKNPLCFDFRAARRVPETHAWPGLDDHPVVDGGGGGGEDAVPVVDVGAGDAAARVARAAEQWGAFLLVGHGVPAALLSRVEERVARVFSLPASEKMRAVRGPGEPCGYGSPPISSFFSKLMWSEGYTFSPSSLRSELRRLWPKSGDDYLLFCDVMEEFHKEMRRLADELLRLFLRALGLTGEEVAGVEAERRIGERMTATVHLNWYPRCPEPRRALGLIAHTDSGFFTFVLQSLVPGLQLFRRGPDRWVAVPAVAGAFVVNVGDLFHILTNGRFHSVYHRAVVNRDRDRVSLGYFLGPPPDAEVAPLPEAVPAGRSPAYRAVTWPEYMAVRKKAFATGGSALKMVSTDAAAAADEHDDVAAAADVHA

O=C(O)CCC(=O)C(=O)O [2-oxoglutarate]
X-ray crystallography, 1.9 A (OsGA3ox2; complex with GA9, 10 mM 2-oxoglutarate, pH 7.0): structure of the OsGA3ox2 complex with (co-) substrates; GA9 and 2-oxoglutarate (2OG)

C=C1C[C@]23C[C@H]1CC[C@H]2[C@@]12CC[C@H](O)[C@@](C)(C(=O)O1)[C@H]2[C@@H]3C(=O)O [GA4]
yeast two-hybrid GID1-SLR1 interaction (-His growth) (GID1): GA7 showed the highest efficiency among all GA ligands, followed by GA4

C=C1C[C@]23C[C@H]1CC[C@H]2[C@@]12C=C[C@H](O)[C@@](C)(C(=O)O1)[C@H]2[C@@H]3C(=O)O [GA7]
yeast two-hybrid GID1-SLR1 interaction (-His growth) (GID1): GA7 showed the highest efficiency among all GA ligands, followed by GA4

C=C1C[C@]23C[C@H]1CC[C@H]2[C@@]12CCC[C@@](C)(C(=O)O1)[C@H]2[C@@H]3C(=O)O [GA9]
X-ray crystallography, 1.9 A (OsGA3ox2; complex with 2-oxoglutarate, 0.5 mM GA9, pH 7.0): structure of the OsGA3ox2 complex with (co-) substrates; GA9 and 2-oxoglutarate (2OG) | in vitro 3-oxidation, gas chromatography of products (OsGA3ox1 [1]): The productivity of GA7 was lower in F235Y-OsGA3ox1 than that in OsGA3ox1 | in vitro 3-oxidation, gas chromatography of products (OsGA3ox1 [2]): GA biosynthesis activities of recombinant OsGA3ox1 and OsGA3ox2 for GA9 as a substrate
